Measurements reported in patent US20250074885A1, “CRYSTALLINE FREEBASE FORM OF 2-(4-CHLOROBENZYLAMINO)-4-(4-TERT-BUTYLAMINOPIPERIDIN-1-YL)-QUINOLINE AND USES THEREOF” (Genoscience Pharma, priority 2023, published 2025).
Where two headings read alike, the source gives them in different places.

Columns and labels:
Assay type in all cases: physicochemical
[1] = Visual (apparent) solubility assessment in re-crystallization solvents; conditions: for solubility: 20 °C, organic solvent or mixture, thermodynamic from solid, read-out: Estimated solubility
Procedure: Prior to launching the slurry experiments, an “apparent solubility” is determined in all ageing media. To do so, to accurately weighed small amounts of 2-(4-chlorobenzylamino)-4-(4-tert-butylaminopiperidin-1-yl)-quinoline, aliquots of each solvent are successively added until complete dissolution is observed. The corresponding solubility S is then estimated.

[2] = Dynamic water vapor sorption (DVS) analysis; conditions: for Hygroscopicity: DVS; for Conversion into hydrated form: high relative humidity up to 95%
Procedure: The dynamic vapor sorption (DVS) analysis (gas water sorption) is performed on a DVS-Intrinsic incubator (SMS Ltd), equipped with DVS-Intrinsic Control Software 1.0.
The sample, placed in an aluminum basket holder, is submitted to a full-cycle analysis (sorption followed by desorption cycle) under the conditions described in Table 9.
The sample is first pre-dried under a stream of dry air until a stabilized sample mass is observed. Then, the relative humidity is increased by 5% increments. At each step, the sample mass is allowed to increase until equilibrium is reached (according to a given dm/dt target), and then a new relative humidity rise occurs. Relative humidity is ramped up to 95%. After equilibration at this point, desorption begins in a similar stepwise manner, with sample mass decrease again allowed to stabilize after each incremental humidity decrease.
With both segments of the above described method, the sample mass recording allows describing of the whole vapor water sorption/desorption behavior versus relative humidity.

[3] = Chemical stability of bulk powder under temperature and humidity stress (HPLC); conditions: for Chemical stability as a bulk powder: at least 1 month at +40° C./75% RH and at +60° C.; for % of unchanged compound left (HPLC-UV at 323 nm): bulk powder, versus standard solutions
Procedure: (§1) The chemical and physical accelerated stability of crystalline form I (see example II) is studied in order to anticipate potential stability issues upon storage or ageing.
(§2) Crystalline form I powder is stored for 1 month at +40° C./75% RH and is also stored for 1 month at +60° C. (with % RH<10%).
The chemical stability is then assessed by chromatography by external standardization versus a freshly prepared (non-stressed crystalline form I) standard solution. For that purpose, three samples (exactly weighted) are stored for each condition.

[4] = Physical stability of bulk powder under temperature and humidity stress (XRPD, DSC, TGA); conditions: for Physical stability as a bulk powder: at least 1 month at +40° C./75% HR and at +60° C.
Procedure: as §1, §2
The physical stability is also assessed by XRPD, DSC and TGA analyses by comparing the XRPD and thermal profiles of stressed samples to those of a non-stressed sample. For that purpose, one more sample is stored in each condition (respectively +40° C./75% RH and +60° C.).

[5] = Thermogravimetric analysis (TGA), thermal decomposition
Procedure: Thermogravimetric analysis is performed on a TA Instruments TGA Hi-Res 2950 apparatus equipped with an evolved gas analysis furnace. A ThermoNicolet Nexus FTIR bench, equipped with FTIR cell gas analysis, is coupled to TGA apparatus via a transfer line.
A sample is placed in an opened aluminum basket and analyzed according to conditions described in Table 6.

[6] = 1 month +40° C./75% RH and +60° C.

## CC(C)(C)NC1CCN(c2cc(NCc3ccc(Cl)cc3)nc3ccccc23)CC1 [2-(4-chlorobenzylamino)-4-(4-tert-butylaminopiperidin-1-yl)-] [2-(4-chlorobenzylamino)-4-(4-tert-butylaminopiperidin-1-yl)-quinoline]
[1]; Acetone, 20-25° C.
  Solubility (grade in words): Medium
[1]; EtAc, 20-25° C.
  Solubility (grade in words): Medium
[1]; EtOH, 20-25° C.
  Solubility (grade in words): Medium
[1]; IPA, 20-25° C.
  Solubility (grade in words): Low
[1]; IPAC, 20-25° C.
  Solubility (grade in words): Medium
[1]; MEK, 20-25° C.
  Solubility (grade in words): Low
[1]; Propanol-1, 20-25° C.
  Solubility (grade in words): Medium
[2]; +25° C.
  Hygroscopicity: not hygroscopic at all
[2]
  Conversion into hydrated form: does not convert into any hydrated form
[3]
  Chemical stability as a bulk powder: chemically and physically stable
[4]
  Physical stability as a bulk powder: chemically and physically stable

## CC(C)(C)NC1CCN(c2cc(NCc3ccc(Cl)cc3)nc3ccccc23)CC1 [2-(4-chlorobenzylamino)-4-(4-tert-butylaminopiperidin-1-yl)-quinoline]
[1]; Acetone, visual, 20-25° C.
  solubility: > 16 mg/mL
[1]; EtAc, visual, 20-25° C.
  solubility: > 17.1 mg/mL
[1]; EtOH, visual, 20-25° C.
  solubility: > 9.8 mg/mL
[1]; IPA, visual, 20-25° C.
  solubility: > 2.6 mg/mL
[1]; IPAC, visual, 20-25° C.
  solubility: > 15.2 mg/mL
[1]; MEK, visual, 20-25° C.
  solubility: > 2.4 mg/mL
[1]; Propanol-1, visual, 20-25° C.
  solubility: > 15.1 mg/mL

## CC(C)(C)NC1CCN(c2cc(NCc3ccc(Cl)cc3)nc3ccccc23)CC1 [Crystalline Form I, 2-(4-chlorobenzylamino)-4-(4-tert-butylaminopiperidin-1-yl)-quinoline]
[2]; +25° C., 0% to 10% RH
  Sample mass variation upon sorption: no significant mass variation
[2]; +25° C.
  Hygroscopicity: non-hygroscopic at all
[2]; +25° C., back to 0% RH, cycle 1, versus mass after pre-drying
  Final sample mass lower than starting mass after desorption: 0.09%
[2]; +25° C., between 95% and 65% RH
  Hysteresis on loss of adsorbed water (desorption): without hysteresis
[2]; +25° C./0% RH, before sorption
  Mass loss during preliminary drying phase: 0.12%
[2]; +25° C./60% RH, sorption cycle 1
  Water uptake: 0.09%
[2]; +25° C./95% RH, sorption cycle 1
  Total water uptake: 0.29%
[2]
  Conversion into hydrated form: does not convert into any hydrated form
[3]; 1 month +40° C./75% RH
  % purity at 323 nm after stress: (% purity = 98.7% at 323 nm)
  Impurity profile compared to the standard profile (HPLC-UV at 323 nm, 252 nm and 203 nm): No additional impurity
  % of unchanged compound left (HPLC-UV at 323 nm): 99.7%
[3]; 1 month +60° C.
  % purity at 323 nm after stress: (% purity = 98.8% at 323 nm)
  Impurity profile compared to the standard profile (HPLC-UV at 323 nm, 252 nm and 203 nm): No additional impurity
  % of unchanged compound left (HPLC-UV at 323 nm): 100.5%
[3]
  Chemical stability as a bulk powder: chemically stable
[5]; non-stressed sample (initial analysis)
  TOnset of main thermal decomposition (TGA): +333 °C
[5]; non-stressed sample, upon heating
  Mass loss before the main thermal decomposition (TGA): no mass loss is detected
[4]; 1 month +40° C./75% HR
  XRPD results: Diffractogram comparable to the initial
[4]; 1 month +40° C./75% RH
  TOnset of main thermal decomposition (TGA): +333 °C
[4]; [6]
  TGA difference between stressed samples and initial physical form: No difference
  XRPD pattern difference between stressed samples and initial physical form: No XRPD pattern difference
[4]; 1 month +60° C.
  TOnset of main thermal decomposition (TGA): +334 °C
  XRPD results: Diffractogram comparable to the initial
[4]
  Physical stability as a bulk powder: physically stable
[4]; stored at +40° C./75% RH and at +60° C.
  DSC profile difference between stressed samples and initial physical form: No DSC profile difference
